The source of these data is EP0328389A2, “Compostions for treating intracranial tumors” (MATRIX PHARMACEUTICAL INC., priority 1988, dated 1989).

A short description of data set [1]: Acute drug toxicity: deaths by day 7 after intracranial drug injection. Format: in vivo, mice. To be noted: mouse, in vivo, 0.2 mg/kg; read-out: % of Mice That Died. Here is the method: (§1) The use of vinblastine (VBL) and vincristine (VC) alone and in combination with a protein carrier on the growth of experimental murine tumors grown intracranially was investigated. Halothane-anesthesized C3H mice 12-16 weeks in age were injected intracranially (i.c.) into the right frontal lobe with 10 µl total volume of Hank's balanced salt solution containing 5 X 10⁴ KHT fibrosarcoma cells through a burr hole made in the exposed cranium with a compressed air-driven drill. Following injection, the cranium was sealed with bone wax, and the overlying skin was sutured.
(§2) The test solution with and without matrix and the saline control were delivered intracranially (i.c.) in an injection volume of 10 µl through the same burr hole used for tumor cell inoculation. All mice were observed daily.
(§3) The acute drug toxicity level was determined by the percentage of animal survival on day 7 following drug injection. A comparison of the acute toxicity (deaths) of mice treated i.c. with matrix-associated VBL to aqueous VBL (10 µl) injection volume to the right frontal lobe is shown in Table 1 below. […]

The subject of a further data set is C3H mice. The data set is described as above. Format: in vivo. To be noted: 0.2 mg/kg vinblastine i.c., 10 µl, right frontal lobe, 5 days post tumor implantation; deaths by day 7 following drug injection; epinephrine 0.1 mg/kg; matrix 1:1 bovine collagen 36 mg/ml. On the procedure:
as §1, §2, §3

For the molecule `CC[C@]1(O)C[C@@H]2CN(CCc3c([nH]c4ccccc34)[C@@](C(=O)OC)(c3cc4c(cc3OC)N(C)[C@H]3[C@@](O)(C(=O)OC)[C@H](OC(C)=O)[C@]5(CC)C=CCN6CC[C@]43[C@@H]65)C2)C1` [Vinblastine, vinblastine], the mortality at 168 h in data set [1] came to 26%. Besides, the “Number of Mice That Died” value with C3H mice came to 7.
